Assay results from patent publication US11707462B2, “Checkpoint kinase 1 (CHK1) inhibitors and uses thereof” (Boundless Bio, Inc., priority 2021, dated 2023).

What follows are compounds tested against T1, Full-length human Chk1 protein (Homo sapiens, UniProt O14757) (assay: Kinase HTRF biochemical assay (HTRF KinEASE), Chk1 enzyme activity). Details: full-length human Chk1, ATP 1 mM, 60 minutes at room temperature.
T1 construct: purchased Carna Biosciences, Inc. 02-117
T1 sequence (O14757 1-476): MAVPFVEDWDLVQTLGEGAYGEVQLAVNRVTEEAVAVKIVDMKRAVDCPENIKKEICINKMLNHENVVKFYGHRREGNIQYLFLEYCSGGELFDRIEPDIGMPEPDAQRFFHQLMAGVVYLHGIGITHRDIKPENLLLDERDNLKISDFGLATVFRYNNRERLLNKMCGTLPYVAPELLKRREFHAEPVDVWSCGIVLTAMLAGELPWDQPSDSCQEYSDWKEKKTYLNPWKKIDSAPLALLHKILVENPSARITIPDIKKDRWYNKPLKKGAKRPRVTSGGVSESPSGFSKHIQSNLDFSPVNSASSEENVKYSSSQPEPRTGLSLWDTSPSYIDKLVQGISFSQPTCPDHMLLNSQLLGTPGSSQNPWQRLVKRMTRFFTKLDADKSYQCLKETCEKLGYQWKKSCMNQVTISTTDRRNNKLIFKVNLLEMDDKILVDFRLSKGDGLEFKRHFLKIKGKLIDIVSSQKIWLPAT
Procedure: Example A: Kinase HTRF Biochemical Assay
Chk1 enzyme activity was measured using an HTRF KinEASE assay (Cisbio, catalog no. 62ST1PEC). Full-length human Chk1 protein (GenBank accession number NP_001265.1) was obtained from Carna Biosciences, Inc. (Kobe, Japan, catalog no. 02-117). The enzyme reaction was carried out in assay buffer containing (final concentrations): Chk1 enzyme (0.012 ng/μL), MgCl2 (5 mM) and DTT (1 mM). To determine compound dose response, DMSO stock solutions were serially diluted in a 10-point concentration series in duplicate. Compound solution (50 nL) was added to 384-well assay plates (Greiner, catalog no. 784075). To each well containing compound solution was added assay buffer solution (5 μL). Plates were centrifuged at 1000 rpm for 1 minute, then incubated at room temperature for 10 minutes. The reaction was started by addition of substrate buffer (5 μL/well) containing (final concentrations): STK substrate 1-biotin (120 nM) and ATP (1 mM). Assay plates were centrifuged at 1000 rpm for 1 minute, then incubated at room temperature for 60 minutes. The reaction was stopped by addition of detection buffer (Cisbio, 10 μL) containing (final concentrations): STK antibody-cryptate (0.25 nM) and streptavidin-XL665 (7.5 nM). Plates were centrifuged at 1000 rpm for 1 minute, then incubated at 25° C. for 2 hours. HTRF signal was read on an EnVision multimode plate reader […] in HTRF mode. Data were fit to dose-response curves using XLfit (IDBS, Surrey, UK) or Prism (GraphPad Software, La Jolla, Calif., US) to calculate IC50 values for each compound tested.

Row | Compound | IC50 [nM]
1 | N#Cc1cnc(Nc2cc(-c3c(F)cccc3O[C@H]3CC[C@@H]3N)[nH]n2)cn1 [Example 3-31, 5-((5-(2-((1S,2S)-2-aminocyclobutoxy)-6-fluorophenyl)-1H-pyrazol-3-yl)amino)pyrazine-2-carbonitrile] | 100 to 500
2 | CC(C)Oc1cccc(O[C@H]2CC[C@H](N)CC2)c1-c1cc(Nc2cnc(C#N)cn2)n[nH]1 [Example 1-18, 5-((5-(2-(((1r,4r)-4-aminocyclohexyl)oxy)-6-isopropoxyphenyl)-1H-pyrazol-3-yl)amino)pyrazine-2-carbonitrile] | 100 to 500
3 | COc1cccc(O[C@@H]2CCC[C@@H](N)C2)c1-c1cc(Nc2cnc(C#N)cn2)n[nH]1 [Example 1-64, 5-((5-(2-(((1R,3R)-3-aminocyclohexyl)oxy)-6-methoxyphenyl)-1H-pyrazol-3-yl)amino)pyrazine-2-carbonitrile] | > 1000
4 | CN[C@@H]1CC[C@@H](Oc2ccc(Cl)c(F)c2-c2cc(Nc3cnc(C(N)=O)cn3)n[nH]2)C1 [Example 3-23, 5-((5-(3-chloro-2-fluoro-6-(((1R,3R)-3-(methylamino)cyclopentyl)oxy)phenyl)-1H-pyrazol-3-yl)amino)pyrazine-2-carboxamide] | > 1000
5 | N#Cc1cnc(Nc2cc(-c3c(OCC4CC4)cccc3O[C@@H]3CC[C@H](N)C3)[nH]n2)cn1 [Example 1-33, 5-((5-(2-(((1R,3S)-3-aminocyclopentyl)oxy)-6-(cyclopropylmethoxy)phenyl)-1H-pyrazol-3-yl)amino)pyrazine-2-carbonitrile] | 100 to 500
6 | N#Cc1cnc(Nc2cc(-c3c(F)cccc3OC3CC4(CC(N)C4)C3)[nH]n2)cn1 (stereo not shown) [Example 3-41, 5-((5-(2-((6-aminospiro[3.3]heptan-2-yl)oxy)-6-fluorophenyl)-1H-pyrazol-3-yl)amino)pyrazine-2-carbonitrile] | 100 to 500
7 | N#Cc1cnc(Nc2cc(-c3c(OC4CCC4)cccc3O[C@H]3CC[C@H](N)CC3)[nH]n2)cn1 [Example 1-34, 5-((5-(2-(((1r,4r)-4-aminocyclohexyl)oxy)-6-cyclobutoxyphenyl)-1H-pyrazol-3-yl)amino)pyrazine-2-carbonitrile] | 100 to 500
8 | N#Cc1cnc(Nc2cc(-c3ccccc3OC3CC4(CC(N)C4)C3)[nH]n2)cn1 (stereo not shown) [Example 1-54, 5-((5-(2-((6-aminospiro[3.3]heptan-2-yl)oxy)phenyl)-1H-pyrazol-3-yl)amino)pyrazine-2-carbonitrile] | 10 to 100
9 | N#Cc1cnc(Nc2cc(-c3c(OC4CCC4)cccc3O[C@H]3C[C@H](N)C3)[nH]n2)cn1 [Example 1-35, 5-((5-(2-((1r,3r)-3-aminocyclobutoxy)-6-cyclobutoxyphenyl)-1H-pyrazol-3-yl)amino)pyrazine-2-carbonitrile] | 100 to 500
10 | N#Cc1cnc(Nc2cc(-c3c(F)cccc3O[C@H]3CC[C@H]3N)[nH]n2)cn1 [Example 3-34, 5-((5-(2-((1S,2R)-2-aminocyclobutoxy)-6-fluorophenyl)-1H-pyrazol-3-yl)amino)pyrazine-2-carbonitrile] | > 1000
11 | CC(C)Oc1cccc(O[C@H]2C[C@H](N)C2)c1-c1cc(Nc2cnc(C#N)cn2)n[nH]1 [Example 1-15, 5-((5-(2-((1r,3r)-3-aminocyclobutoxy)-6-isopropoxyphenyl)-1H-pyrazol-3-yl)amino)pyrazine-2-carbonitrile] | 100 to 500
12 | COc1cccc(OC[C@H]2C[C@H](N)C2)c1-c1cc(Nc2cnc(C#N)cn2)n[nH]1 [Example 1-3] | > 1000
13 | N#Cc1cnc(Nc2cc(-c3c(OCC4CC4)cccc3O[C@H]3CC[C@H](N)CC3)[nH]n2)cn1 [Example 1-31, 5-((5-(2-(((1r,4r)-4-aminocyclohexyl)oxy)-6-(cyclopropylmethoxy)phenyl)-1H-pyrazol-3-yl)amino)pyrazine-2-carbonitrile] | 100 to 500
14 | N#Cc1cnc(Nc2cc(-c3c(F)cccc3O[C@@H]3CCCC[C@@H](N)C3)[nH]n2)cn1 [Example 3-37, 5-((5-(2-(((1R,3R)-3-aminocycloheptyl)oxy)-6-fluorophenyl)-1H-pyrazol-3-yl)amino)pyrazine-2-carbonitrile] | 10 to 100
15 | COc1cccc(O[C@@H]2CCCC[C@@H](N)C2)c1-c1cc(Nc2cnc(C#N)cn2)n[nH]1 [Example 3-6, 5-((5-(2-(((1R,3R)-3-aminocycloheptyl)oxy)-6-methoxyphenyl)-1H-pyrazol-3-yl)amino)pyrazine-2-carbonitrile] | 100 to 500
16 | COc1cccc(O[C@H]2CCCC[C@@H](N)C2)c1-c1cc(Nc2cnc(C#N)cn2)n[nH]1 [Example 3-9, 5-((5-(2-(((1S,3R)-3-aminocycloheptyl)oxy)-6-methoxyphenyl)-1H-pyrazol-3-yl)amino)pyrazine-2-carbonitrile] | 10 to 100
17 | N#Cc1cnc(Nc2cc(-c3c(F)cccc3O[C@@H]3CC[C@@H]3N)[nH]n2)cn1 [Example 3-32, 5-((5-(2-((1R,2S)-2-aminocyclobutoxy)-6-fluorophenyl)-1H-pyrazol-3-yl)amino)pyrazine-2-carbonitrile] | 10 to 100
18 | COc1cccc(O[C@@H]2CC[C@@H]2N)c1-c1cc(Nc2cnc(C#N)cn2)n[nH]1 [Example 3-4, 5-((5-(2-((1R,2S)-2-aminocyclobutoxy)-6-methoxyphenyl)-1H-pyrazol-3-yl)amino)pyrazine-2-carbonitrile] | 10 to 100
19 | COc1cccc(O[C@H]2CCC[C@H](N)C2)c1-c1cc(Nc2cnc(C#N)cn2)n[nH]1 [Example 1-65, 5-[[5-[2-[(1S,3S)-3-aminocyclohexoxy]-6-methoxy-phenyl]-1H-pyrazol-3-yl]amino]pyrazine-2-carbonitrile] | > 1000

Second part, the compound after the results:

Row | IC50 [nM] | Compound
20 | > 1000 | COCc1cccc(O[C@@H]2CC[C@H](N)C2)c1-c1cc(Nc2cnc(C#N)cn2)n[nH]1 [Example 1-30, 5-((5-(2-(((1R,3S)-3-aminocyclopentyl)oxy)-6-(methoxymethyl)phenyl)-1H-pyrazol-3-yl)amino)pyrazine-2-carbonitrile]
21 | > 1000 | CC(C)Oc1cccc(O[C@@H]2CC[C@H](N)C2)c1-c1cc(Nc2cnc(C#N)cn2)n[nH]1 [Example 1-24, 5-((5-(2-(((1R,3S)-3-aminocyclopentyl)oxy)-6-isopropoxyphenyl)-1H-pyrazol-3-yl)amino)pyrazine-2-carbonitrile]
22 | 100 to 500 | COc1ccc(Cl)c(O[C@@H]2CC[C@H](N)C2)c1-c1cc(Nc2cnc(C#N)cn2)n[nH]1 [Example 4-4, 5-((5-(2-(((1R,3S)-3-aminocyclopentyl)oxy)-3-chloro-6-methoxyphenyl)-1H-pyrazol-3-yl)amino)pyrazine-2-carbonitrile]
23 | ≤ 10 | N#Cc1cnc(Nc2cc(-c3nc(C(F)F)ccc3O[C@@H]3CC[C@H](N)C3)[nH]n2)cn1 [Example 3-54, 5-((5-(3-(((1R,3S)-3-aminocyclopentyl)oxy)-6-(difluoromethyl)pyridin-2-yl)-1H-pyrazol-3-yl)amino)pyrazine-2-carbonitrile]
24 | 100 to 500 | Cc1ccc(O[C@H]2CC[C@@H](N)C2)c(-c2cc(Nc3cnc(C#N)cn3)n[nH]2)n1 [Example 3-43, 5-((5-(3-(((1S,3R)-3-aminocyclopentyl)oxy)-6-methylpyridin-2-yl)-1H-pyrazol-3-yl)amino)pyrazine-2-carbonitrile]
25 | > 1000 | Cc1nc(-c2cc(Nc3cnc(C(N)=O)cn3)n[nH]2)c(O[C@@H]2CC[C@H](N)C2)cc1F [Example 3-51, 5-((5-(3-(((1R,3S)-3-aminocyclopentyl)oxy)-5-fluoro-6-methylpyridin-2-yl)-1H-pyrazol-3-yl)amino)pyrazine-2-carboxamide]
26 | 100 to 500 | Cc1nc(-c2cc(Nc3cnc(C#N)cn3)n[nH]2)c(O[C@@H]2CC[C@H](N)C2)cc1Cl [Example 3-52, 5-((5-(3-(((1R,3S)-3-aminocyclopentyl)oxy)-5-chloro-6-methylpyridin-2-yl)-1H-pyrazol-3-yl)amino)pyrazine-2-carbonitrile]
27 | > 1000 | Cc1cc(Cl)c(O[C@@H]2CC[C@H](N)C2)c(-c2cc(Nc3cnc(C#N)cn3)n[nH]2)n1 [Example 3-53, 5-((5-(3-(((1R,3S)-3-aminocyclopentyl)oxy)-4-chloro-6-methylpyridin-2-yl)-1H-pyrazol-3-yl)amino)pyrazine-2-carbonitrile]
28 | > 1000 | COc1cccc(O[C@H]2CC[C@H](N)C2)c1-c1cc(Nc2cnc(C#N)cn2)n[nH]1 [Example 1-6, 5-((5-(2-(((1S,3S)-3-aminocyclopentyl)oxy)-6-methoxyphenyl)-1H-pyrazol-3-yl)amino)pyrazine-2-carbonitrile]
